Measured values reported in patent US10428083B2, “Heterocyclylmethyl-thienouracile as antagonists of the adenosine-A2B-receptor” (BAYER PHARMA AKTIENGESELLSCHAFT, priority 2015, dated 2019).

Molecular target: human adenosine A2b receptor (Homo sapiens (Human), UniProt P29275)
Test: Cellular in vitro reporter gene test for A2b receptor activity (CHO-K1, CRE-luciferase, NECA stimulation)
Assay type: cell-based
Conditions: recombinant CHO-K1 cell line, CRE-luciferase reporter, antagonism of EC50 concentration of NECA; in some cases means of several determinations, rounded to two significant figures; read-out: A2b receptor IC50
Summary of the method: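 CHO-K1 cells with CRE-driven luciferase; antagonists co-incubated with NECA at its EC50, determined in a pre-experiment on each test day. Luciferase read by luminescence 3 h after NECA addition.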

Chain of human adenosine A2b receptor (P29275 whole entry): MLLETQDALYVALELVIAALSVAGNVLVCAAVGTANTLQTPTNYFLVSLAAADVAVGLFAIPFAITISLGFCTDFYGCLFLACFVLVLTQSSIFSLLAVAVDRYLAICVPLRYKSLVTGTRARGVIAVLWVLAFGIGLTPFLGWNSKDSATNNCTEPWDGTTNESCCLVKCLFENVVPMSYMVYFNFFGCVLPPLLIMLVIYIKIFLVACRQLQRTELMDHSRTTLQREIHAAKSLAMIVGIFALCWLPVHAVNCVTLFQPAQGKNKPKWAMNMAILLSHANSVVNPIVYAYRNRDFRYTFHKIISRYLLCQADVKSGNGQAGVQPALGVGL

| Compound | IC50 [nM] |
| --- | --- |
| COCCn1c(=O)n(C(C)C(F)(F)F)c(=O)c2c(C)c(CN3CCNC(=O)C3=O)sc21 (racemic) [Example 491, 6-[(2,3-Dioxopiperazin-1-yl)methyl]-1-(2-methoxyethyl)-5-methyl-3-(1,1,1-trifluoropropan-2-yl)thieno[2,3-d]pyrimidine-2,4(1H,3H)-dione] | 52 |
| Cc1c(CN2CCNC2=O)sc2c1c(=O)n(C(C)C)c(=O)n2CCC(F)(F)F [Example 181, 3-Isopropyl-5-methyl-6-[(2-oxoimidazolidin-1-yl)methyl]-1-(3,3,3-trifluoropropyl)thieno[2,3-d]pyrimidine-2,4(1H,3H)-dione] | 1.5 |
| COC(=O)N=C1NCCN1Cc1sc2c(c1C)c(=O)n(C(C)C)c(=O)n2CC1CCO1 (racemic) [Example 379, Methyl [1-{[3-isopropyl-5-methyl-1-(oxetan-2-ylmethyl)-2,4-dioxo-1,2,3,4-tetrahydrothieno[2,3-d]pyrimidin-6-yl]methyl}imidazolidin-2-ylidene]carbamate] | 13 |
| Cc1c(CN2CCNC(=O)C2=O)sc2c1c(=O)n(C(C)C)c(=O)n2CC1CCCO1 (racemic) [Example 480, 6-[(2,3-Dioxopiperazin-1-yl)methyl]-3-isopropyl-5-methyl-1-(tetrahydrofuran-2-ylmethyl)thieno[2,3-d]pyrimidine-2,4(1H,3H)-dione] | 35 |
| COCCn1c(=O)c2c(C)c(Cn3cc[nH]c3=O)sc2n(CC2CCCO2)c1=O (single isomer, unassigned) [Example 348, 3-(2-Methoxyethyl)-5-methyl-6-[(2-oxo-2,3-dihydro-1H-imidazol-1-yl)methyl]-1-(tetrahydrofuran-2-ylmethyl)thieno[2,3-d]pyrimidine-2,4(1H,3H)-dione] | 48 |
| CCn1c(=O)c2c(C)c(CN3CCNC3=S)sc2n(CCCOC)c1=O [Example 296, 3-Ethyl-1-(3-methoxypropyl)-5-methyl-6-[(2-thioxoimidazolidin-1-yl)methyl]thieno[2,3-d]pyrimidine-2,4(1H,3H)-dione] | 16 |
| COCCn1c(=O)c2c(C)c(Cn3nc[nH]c3=O)sc2n(CCC(F)(F)F)c1=O [Example 439, 3-(2-Methoxyethyl)-5-methyl-6-[(5-oxo-4,5-dihydro-1H-1,2,4-triazol-1-yl)methyl]-1-(3,3,3-trifluoropropyl)thieno[2,3-d]pyrimidine-2,4(1H,3H)-dione] | 180 |
| CCn1c(=O)c2c(C)c(CN3CCCN(C)C3=O)sc2n(CCC(F)(F)F)c1=O [Example 108, 3-Ethyl-5-methyl-6-[(3-methyl-2-oxotetrahydropyrimidin-1(2H)-yl)methyl]-1-(3,3,3-trifluoropropyl)thieno[2,3-d]pyrimidine-2,4(1H,3H)-dione] | 3.3 |
| CCn1c(=O)c2c(C)c(CN3CCNC3=NC#N)sc2n(CC2CCO2)c1=O (racemic) [Example 256, [1-{[3-Ethyl-5-methyl-1-(oxetan-2-ylmethyl)-2,4-dioxo-1,2,3,4-tetrahydrothieno[2,3-d]pyrimidin-6-yl]methyl}imidazolidin-2-ylidene]cyanamide] | 11 |
| COCCn1c(=O)n(CCc2ccccc2)c(=O)c2c(C(F)(F)F)c(CN3CCN(C)C3=O)sc21 [Example 105, 1-(2-Methoxyethyl)-6-[(3-methyl-2-oxoimidazolidin-1-yl)methyl]-3-(2-phenylethyl)-5-(trifluoromethyl)thieno[2,3-d]pyrimidine-2,4(1H,3H)-dione] | 14 |
| COCCn1c(=O)n(C(C)C(F)(F)F)c(=O)c2c(C)c(CN3CCNC3=NC#N)sc21 (single isomer, unassigned) [Example 510, [1-{[1-(2-Methoxyethyl)-5-methyl-2,4-dioxo-3-(1,1,1-trifluoropropan-2-yl)-1,2,3,4-tetrahydrothieno[2,3-d]pyrimidin-6-yl]methyl}imidazolidin-2-ylidene]cyanamide] | 47 |
| CCn1c(=O)c2c(C)c(CN3CC(N)CC3=O)sc2n(CCC(F)(F)F)c1=O (racemic) [Example 9, 6-[(4-Amino-2-oxopyrrolidin-1-yl)methyl]-3-ethyl-5-methyl-1-(3,3,3-trifluoropropyl)thieno[2,3-d]pyrimidine-2,4(1H,3H)-dione (racemate)] | 97 |
| COC(=O)N=C1NCCN1Cc1sc2c(c1C)c(=O)n(CC(C)(C)C)c(=O)n2CC1CCCO1 (single isomer, unassigned) [Example 465, Methyl [1-{[3-(2,2-dimethylpropyl)-5-methyl-2,4-dioxo-1-(tetrahydrofuran-2-ylmethyl)-1,2,3,4-tetrahydrothieno[2,3-d]pyrimidin-6-yl]methyl}imidazolidin-2-ylidene]carbamate] | 13 |
| CCn1c(=O)c2c(C)c(CN3CCNC(=O)C3=O)sc2n(CC2CCCO2)c1=O (single isomer, unassigned) [Example 476, 6-[(2,3-Dioxopiperazin-1-yl)methyl]-3-ethyl-5-methyl-1-(tetrahydrofuran-2-ylmethyl)thieno[2,3-d]pyrimidine-2,4(1H,3H)-dione] | 140 |
| Cc1c(CN2CCNC2=NC#N)sc2c1c(=O)n(CC(F)(F)F)c(=O)n2CC1CCO1 (single isomer, unassigned) [Example 449, [1-{[5-Methyl-1-(oxetan-2-ylmethyl)-2,4-dioxo-3-(2,2,2-trifluoroethyl)-1,2,3,4-tetrahydrothieno[2,3-d]pyrimidin-6-yl]methyl}imidazolidin-2-ylidene]cyanamide] | 54 |
| CCn1c(=O)c2c(C)c(Cn3[nH]ccc3=O)sc2n(CC2CCCO2)c1=O (single isomer, unassigned) [Example 131, 3-Ethyl-5-methyl-6-[(5-oxo-2,5-dihydro-1H-pyrazol-1-yl)methyl]-1-(tetrahydrofuran-2-ylmethyl)thieno[2,3-d]pyrimidine-2,4(1H,3H)-dione] | 180 |

Continued, values first:

| IC50 [nM] | Compound |
| --- | --- |
| 2.2 | CCn1c(=O)c2c(C)c(CN3CCNC3=NC#N)sc2n(CC2CCCO2)c1=O (single isomer, unassigned) [Example 260, [1-{[3-Ethyl-5-methyl-2,4-dioxo-1-(tetrahydrofuran-2-ylmethyl)-1,2,3,4-tetrahydrothieno[2,3-d]pyrimidin-6-yl]methyl}imidazolidin-2-ylidene]cyanamide] |
| 35 | CCOCCn1c(=O)c2c(C)c(CN3CCNC(=O)C3=O)sc2n(CCC(F)(F)F)c1=O [Example 403, 6-[(2,3-Dioxopiperazin-1-yl)methyl]-3-(2-ethoxyethyl)-5-methyl-1-(3,3,3-trifluoropropyl)thieno[2,3-d]pyrimidine-2,4(1H,3H)-dione] |
| 24 | COCCn1c(=O)n(CCc2ccccc2)c(=O)c2c(C(F)(F)F)c(CN3CCOC3=O)sc21 [Example 22, 1-(2-Methoxyethyl)-6-[(2-oxo-1,3-oxazolidin-3-yl)methyl]-3-(2-phenylethyl)-5-(trifluoromethyl)thieno[2,3-d]pyrimidine-2,4(1H,3H)-dione] |
| 11 | COC(C)Cn1c(=O)c2c(C)c(CN3CCNC(=O)C3=O)sc2n(CCC(F)(F)F)c1=O (racemic) [Example 493, 6-[(2,3-Dioxopiperazin-1-yl)methyl]-3-(2-methoxypropyl)-5-methyl-1-(3,3,3-trifluoropropyl)thieno[2,3-d]pyrimidine-2,4(1H,3H)-dione] |
| 6 | COC(C)(C)Cn1c(=O)c2c(C)c(CN3CCNC3=O)sc2n(CCC(F)(F)F)c1=O [Example 236, 3-(2-Methoxy-2-methylpropyl)-5-methyl-6-[(2-oxoimidazolidin-1-yl)methyl]-1-(3,3,3-trifluoropropyl)thieno[2,3-d]pyrimidine-2,4(1H,3H)-dione] |
| 24 | Cc1c(CN2CCNC2=NC#N)sc2c1c(=O)n(CC(F)(F)F)c(=O)n2CC1CCCO1 (racemic) [Example 269, [1-{[5-Methyl-2,4-dioxo-1-(tetrahydrofuran-2-ylmethyl)-3-(2,2,2-trifluoroethyl)-1,2,3,4-tetrahydrothieno[2,3-d]pyrimidin-6-yl]methyl}imidazolidin-2-ylidene]cyanamide] |
| 5.1 | Cc1c(CN2CCNC2=S)sc2c1c(=O)n(CC(C)(C)C)c(=O)n2CCC(F)(F)F [Example 149, 3-(2,2-Dimethylpropyl)-5-methyl-6-[(2-thioxoimidazolidin-1-yl)methyl]-1-(3,3,3-trifluoropropyl)thieno[2,3-d]pyrimidine-2,4(1H,3H)-dione] |
| 7 | CCn1c(=O)c2c(C)c(CN3CCNC3=NC(=O)OC)sc2n(CC2CCCO2)c1=O (racemic) [Example 374, Methyl [1-{[3-ethyl-5-methyl-2,4-dioxo-1-(tetrahydrofuran-2-ylmethyl)-1,2,3,4-tetrahydrothieno[2,3-d]pyrimidin-6-yl]methyl}imidazolidin-2-ylidene]carbamate] |
| 5.1 | Cc1c(Cn2cc[nH]c2=O)sc2c1c(=O)n(C(C)C)c(=O)n2CC1CCCO1 (single isomer, unassigned) [Example 248, 3-Isopropyl-5-methyl-6-[(2-oxo-2,3-dihydro-1H-imidazol-1-yl)methyl]-1-(tetrahydrofuran-2-ylmethyl)thieno[2,3-d]pyrimidine-2,4(1H,3H)-dione] |
| 36 | CCn1c(=O)c2c(C)c(CN3CCNC(=O)C3=O)sc2n(CC2CCCO2)c1=O (racemic) [Example 475, 6-[(2,3-Dioxopiperazin-1-yl)methyl]-3-ethyl-5-methyl-1-(tetrahydrofuran-2-ylmethyl)thieno[2,3-d]pyrimidine-2,4(1H,3H)-dione] |
| 9.2 | CCn1c(=O)c2c(C)c(CN3C(=O)CNC3=O)sc2n(CCOC(F)(F)F)c1=O [Example 106, 6-[(2,5-Dioxoimidazolidin-1-yl)methyl]-3-ethyl-5-methyl-1-[2-(trifluoromethoxy)ethyl]thieno[2,3-d]pyrimidine-2,4(1H,3H)-dione] |
| 53 | CCn1c(=O)c2c(C)c(CN3CCNC3=O)sc2n(CCOC(C)C)c1=O [Example 61, 3-Ethyl-1-(2-isopropoxyethyl)-5-methyl-6-[(2-oxoimidazolidin-1-yl)methyl]thieno[2,3-d]pyrimidine-2,4(1H,3H)-dione] |
